The target in one series is PLK1 (Homo sapiens, UniProt P53350). Briefly: Biochemical kinase profiling PLK1.
A further series has as its target ERK1 (Homo sapiens, UniProt P27361). Description: Biochemical kinase profiling ERK1.
The target in another series is AKT1 (Homo sapiens, UniProt P31749). Briefly: Biochemical kinase profiling AKT1.
For series [1], the system named is MV4-11 acute myelocytic leukemia (AML) cells. Description: Flow cytometry cell cycle distribution, MV4-11. Type of series: cell-based, human. How it is done: (§1) Flow cytometry was also used to determine cell cycle distribution in cell lines, as described in the supplemental materials.
(§2) Flow cytometry was used to determine cell cycle distribution in cell lines. Cells were cultured in growth media under subconfluent conditions and treated with indicated concentrations of compound solubilized in DMSO for 24 hours at 37°C/5% CO2. After treatment, cells were collected, washed once with 4° C PBS, and fixed with 70% ethanol/30% water at -20 °C for 30 minutes. Cells were then collected by centrifugation, washed once with PBS, and stained for 30 minutes at room temperature by the addition of 1 mL of propidium iodide/Triton X-100 staining solution (20µg/mL of propidium iodide, 200µg/mL DNase-free RNase A, 0.1%(v/v) Triton x-100). Cell cycle analysis was performed using a Cytomics™ FC500 (Coulter); data were analyzed using ModFit v3.1 software (Verity).

For series [2], the system named is Rb-proficient MDA-MB-231 breast cancer cells. Briefly: Flow cytometry cell cycle distribution, MDA-MB-231. Format: cell-based, human. On the procedure: as §1, §2
Background: Flow cytometry measures light scatter and fluorescence of single cells or particles in a stream.

Series [3] concerns p-Rb, TopoIIα, pHH3 in colo-205 xenografts. Particulars: 24 h after oral dosing.
The conditions of series [4]: PK/PD model, colo-205 bearing mice, continuous dosing ref 37; cited from earlier work.
Details of series [5]: method as in manuscript in preparation. Particulars: ref manuscript in preparation; cited from earlier work.
Setting [6] is: colo-205 xenograft dose response.

“Also recorded” adds a separate entry of the source. Bounds are passed on as bounds.

For orientation: IC50 means the concentration that gives 50% inhibition.

Chain of PLK1 (P53350 whole entry): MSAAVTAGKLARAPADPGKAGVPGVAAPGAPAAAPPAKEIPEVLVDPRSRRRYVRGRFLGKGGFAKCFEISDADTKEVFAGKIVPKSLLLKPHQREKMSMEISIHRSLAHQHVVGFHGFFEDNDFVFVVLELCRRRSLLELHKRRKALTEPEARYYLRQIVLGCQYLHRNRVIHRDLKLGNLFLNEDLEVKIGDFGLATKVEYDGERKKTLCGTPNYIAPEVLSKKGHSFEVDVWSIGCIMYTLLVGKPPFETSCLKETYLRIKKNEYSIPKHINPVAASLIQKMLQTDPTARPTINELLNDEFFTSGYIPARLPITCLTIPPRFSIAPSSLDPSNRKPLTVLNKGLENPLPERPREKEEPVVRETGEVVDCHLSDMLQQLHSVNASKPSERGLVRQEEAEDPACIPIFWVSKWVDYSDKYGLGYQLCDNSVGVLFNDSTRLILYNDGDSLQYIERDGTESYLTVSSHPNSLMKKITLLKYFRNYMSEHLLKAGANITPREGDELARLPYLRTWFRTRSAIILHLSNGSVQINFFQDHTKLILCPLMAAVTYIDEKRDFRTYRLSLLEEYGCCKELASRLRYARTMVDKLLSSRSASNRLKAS
Chain of AKT1 (P31749 whole entry): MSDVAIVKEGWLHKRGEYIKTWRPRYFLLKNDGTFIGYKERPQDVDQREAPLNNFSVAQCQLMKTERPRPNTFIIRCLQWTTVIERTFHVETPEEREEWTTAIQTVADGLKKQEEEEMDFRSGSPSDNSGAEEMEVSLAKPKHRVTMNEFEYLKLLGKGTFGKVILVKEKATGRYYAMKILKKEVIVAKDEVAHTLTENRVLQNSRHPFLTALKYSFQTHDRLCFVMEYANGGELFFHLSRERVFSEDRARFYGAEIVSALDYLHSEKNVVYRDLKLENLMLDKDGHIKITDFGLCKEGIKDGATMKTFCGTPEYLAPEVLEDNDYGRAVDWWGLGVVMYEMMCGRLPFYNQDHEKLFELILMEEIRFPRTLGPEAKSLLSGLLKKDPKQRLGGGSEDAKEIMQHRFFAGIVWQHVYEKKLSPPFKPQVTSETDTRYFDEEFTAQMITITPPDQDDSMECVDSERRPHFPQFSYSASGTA
Chain of ERK1 (P27361 whole entry): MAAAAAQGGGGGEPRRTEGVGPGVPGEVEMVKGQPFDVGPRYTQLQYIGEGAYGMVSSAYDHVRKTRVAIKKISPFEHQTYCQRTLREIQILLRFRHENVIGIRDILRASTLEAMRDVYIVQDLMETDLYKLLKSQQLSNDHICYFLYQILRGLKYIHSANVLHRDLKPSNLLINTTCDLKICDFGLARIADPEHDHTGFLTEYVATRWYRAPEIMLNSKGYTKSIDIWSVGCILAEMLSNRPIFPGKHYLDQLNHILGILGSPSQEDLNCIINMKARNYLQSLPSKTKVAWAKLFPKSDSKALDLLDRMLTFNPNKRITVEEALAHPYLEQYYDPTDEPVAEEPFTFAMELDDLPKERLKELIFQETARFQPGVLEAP

As for `CCN1CCN(Cc2ccc(Nc3ncc(F)c(-c4cc(F)c5nc(C)n(C(C)C)c5c4)n3)nc2)CC1` [LY2835219, [5-(4-Ethyl-piperazin-1-ylmethyl)-pyridin-2-yl]-[5-fluoro-4-(7-fluoro-3-isopropyl-2-methyl-3H-benzoimidazol-5-yl)-pyrimidin-2-yl]-amine], at PLK1, the half-maximal inhibitory concentration (IC50) was above 20 µM and the “activity against PLK1” value is listed as “Complete lack of activity”. Besides, the IC50 at ERK1 was above 20 µM. In addition, the IC50 on AKT1 was above 20 µM. In series [1] (MV4-11), the “compound concentration up to which G1 arrest was sustained” value is recorded as “up to 5,000 nmol/L”. Further, the “concentration at which maximum G1 arrest was seen” value in series [1] (MV4-11, 24 h) was at least 320 nmol/L. Also, the “G1 arrest in Rb-proficient cells” value in series [2] was “induced a G1 arrest”. For the same compound, in series [3] (setting [6]), the “TED70 for in vivo inhibition of TopoII” value is on record as 14 mg/kg and the “TED70 for in vivo inhibition of pRb” value is on record as 14 mg/kg. Further, in series [3] (colo-205 xenografts), the “doses at which p-Rb, TopoIIα and pHH3 were all significantly inhibited” value is at least 12.5 mg/kg. Besides, in series [4], the “minimum steady state trough plasma concentration required for robust efficacy” value is on record as “approximately 200 ng/mL; also recorded: approximately 400 nM”. In series [5], the “ability to cross the blood–brain barrier” value was “effectively cross the blood–brain barrier”.

Values taken from paper PMC4169866 (Investigational New Drugs, 2014).
